Laboratory results as given in ChEMBL document CHEMBL1201862, “PubChem BioAssay data set” (2004).
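Exposure lasted 48 hours, with cells grown in 96-well plates and compounds tested at five concentrations. GI50: concentration for 50% inhibition of growth.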 Activity calls are given as the source filed them. Cut-off read from the data, not from the text of the source: active = GI50 up to about 1.1 µM and inactive = higher.

Tests used:
Experiment in all cases: growth of human tumour cells (NCI), 48 h
[1] = tested on: HT-29
[2] = tested on: SK-MEL-2
[3] = tested on: DMS-114
[4] = tested on: SK-MEL-5
[5] = tested on: HOP-62
[6] = tested on: OVCAR-4
[7] = tested on: MOLT-4
[8] = tested on: SF-295
[9] = tested on: HOP-92
[10] = tested on: CCRF-CEM
[11] = tested on: SNB-19
[12] = tested on: RPMI-8226
[13] = tested on: TK-10
[14] = tested on: A498
[15] = tested on: HCT-116
[16] = tested on: SNB-75
[17] = tested on: NCI-H522

Row | SMILES | GI50 [1] | GI50 [2] | GI50 [3] | GI50 [4] | GI50 [5] | GI50 [6] | GI50 [7] | GI50 [8] | GI50 [9] | GI50 [10] | GI50 [11] | GI50 [12] | GI50 [13] | GI50 [14] | GI50 [15] | GI50 [16] | GI50 [17]
1 | CC1(C(=O)O)CCC[C@@]2(C)C1CC[C@@]1(C)c3cocc3CCC21 (stereo not given in full) | > 100 µM (inactive) | > 100 µM (inactive) | > 100 µM (inactive) | > 100 µM (inactive) | > 100 µM (inactive) | > 100 µM (inactive) | > 100 µM (inactive) | > 100 µM (inactive) | > 100 µM (inactive) | > 100 µM (inactive) | > 100 µM (inactive) | > 100 µM (inactive) | > 100 µM (inactive) | > 100 µM (inactive) | 72.8 µM (inactive) | > 100 µM (inactive) | 
2 | CCOc1ccccc1NC(=O)C(=O)C(C(=O)c1ccc2ccccc2c1)C1OC(=O)c2ccccc21 (stereo not given) | 28.6 µM (inactive) | 13.2 µM (inactive) | 9.62 µM (inactive) | 10.6 µM (inactive) | 13.4 µM (inactive) | 4.61 µM (inactive) | 3.37 µM (inactive) |  | 10.5 µM (inactive) | 8.22 µM (inactive) | 4.53 µM (inactive) | 6.08 µM (inactive) | 24.4 µM (inactive) | 14.3 µM (inactive) | 9.2 µM (inactive) | 8.77 µM (inactive) | 11.8 µM (inactive)
3 | [O-][n+]1c2cc(CBr)c(CBr)cc2[n+]([O-])c2c(O)cccc21 | 2.01 µM (inactive) | 2.22 µM (inactive) | 1.69 µM (inactive) | 2.1 µM (inactive) | 20.1 µM (inactive) | 1.8 µM (inactive) | 0.344 µM (active) | 1.84 µM (inactive) | 1.05 µM (active) | 0.265 µM (active) | 5.26 µM (inactive) | 1.53 µM (inactive) | 6.07 µM (inactive) | 12.5 µM (inactive) | 1.53 µM (inactive) | 2.11 µM (inactive) | 0.538 µM (active)
4 | O=C1/C(=C\c2ccccc2)c2ccccc2N1/N=C\c1ccccc1 | 25.1 µM (inactive) | > 100 µM (inactive) | > 100 µM (inactive) | 48.4 µM (inactive) | > 100 µM (inactive) | > 100 µM (inactive) | 22.5 µM (inactive) | > 100 µM (inactive) | > 100 µM (inactive) | 49.2 µM (inactive) | > 100 µM (inactive) | 57.3 µM (inactive) | > 100 µM (inactive) | > 100 µM (inactive) | 77.4 µM (inactive) | 29 µM (inactive) | 
5 | CCCCCCCCCCCCCC(=O)OCC1OC(OC)C(NC(=O)N(CCCl)N=O)C(O)C1O (stereo not given) | 19.9 µM (inactive) | 38.1 µM (inactive) | 18.5 µM (inactive) | 16.2 µM (inactive) | 17.2 µM (inactive) | 20.6 µM (inactive) | 2.06 µM (inactive) | 7.43 µM (inactive) |  | 10.3 µM (inactive) | 18.5 µM (inactive) | 11.4 µM (inactive) | 37.9 µM (inactive) | 27.1 µM (inactive) | 14.3 µM (inactive) | 8.89 µM (inactive) | > 10 µM (inactive)
6 | c1ccc(SC(CCCCC(Sc2ccccc2)Sc2ccccc2)Sc2ccccc2)cc1 |  | > 100 µM (inactive) | > 100 µM (inactive) | > 100 µM (inactive) | > 100 µM (inactive) | > 100 µM (inactive) | > 100 µM (inactive) | > 100 µM (inactive) | > 100 µM (inactive) | > 100 µM (inactive) | > 100 µM (inactive) | > 100 µM (inactive) | > 100 µM (inactive) | > 100 µM (inactive) | > 100 µM (inactive) | > 100 µM (inactive) | 
7 | O=C1NC(=S)NC(=O)C1=CC1CC1 | > 100 µM (inactive) | > 100 µM (inactive) | > 100 µM (inactive) | > 100 µM (inactive) | > 100 µM (inactive) | > 100 µM (inactive) | > 100 µM (inactive) | > 100 µM (inactive) | > 100 µM (inactive) | > 100 µM (inactive) | > 100 µM (inactive) | > 100 µM (inactive) | > 100 µM (inactive) | > 100 µM (inactive) | > 100 µM (inactive) | 46.3 µM (inactive) | > 100 µM (inactive)
8 | O=[N+]([O-])c1ccc(C2CC(c3ccccc3Cl)=Nc3ccccc3S2)cc1 (stereo not given) | 4.35 µM (inactive) | 11.7 µM (inactive) | 2.19 µM (inactive) | 3.95 µM (inactive) | 22.3 µM (inactive) | 9.84 µM (inactive) | 1.56 µM (inactive) | 7.5 µM (inactive) | 6 µM (inactive) | 2.07 µM (inactive) | 4.3 µM (inactive) | 1.66 µM (inactive) | 18.8 µM (inactive) | 1.87 µM (inactive) | 1.96 µM (inactive) | 4.21 µM (inactive) | 2.89 µM (inactive)
